Assay [1] concerns the target Aurora kinase B-A (Xenopus laevis, UniProt Q6DE08). The assay can be described thus: Inhibition of Xenopus laevis Aurora kinase B/INCEP complex using gamma-[32P]ATP incubated for 1 hr by autoradiography.
In assay [2] the target is T1, Aurora kinase A (Homo sapiens, UniProt O14965).
T1 sequence (O14965 whole entry): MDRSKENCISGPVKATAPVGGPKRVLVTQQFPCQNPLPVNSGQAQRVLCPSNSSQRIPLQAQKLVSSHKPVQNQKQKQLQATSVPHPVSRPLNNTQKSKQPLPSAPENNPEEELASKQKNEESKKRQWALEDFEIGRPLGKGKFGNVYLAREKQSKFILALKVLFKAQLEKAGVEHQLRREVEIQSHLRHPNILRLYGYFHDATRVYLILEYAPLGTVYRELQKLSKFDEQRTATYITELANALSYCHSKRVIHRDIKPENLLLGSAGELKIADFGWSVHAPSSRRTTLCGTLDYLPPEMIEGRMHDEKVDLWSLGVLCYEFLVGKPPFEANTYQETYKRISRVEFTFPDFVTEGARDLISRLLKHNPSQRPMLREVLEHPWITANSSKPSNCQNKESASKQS
Description: Inhibition of human Aurora kinase A/TPX2 complex using gamma-[32P]ATP incubated for 1 hr by autoradiography

The target in assay [3] is Aurora kinase B (Homo sapiens, UniProt Q96GD4). The assay can be described thus: Inhibition of human Aurora kinase B/INCEP complex expressed in Escherichia coli BL21 (DE3) using gamma-[32P]ATP incubated for 1 hr by autoradiography.

Molecules are shown by their SMILES.

As a reminder, the IC50 is the concentration that inhibits the measured activity by half. The low end stands for inhibition by little substance, the high end for a need for much substance.

Sequence of Aurora kinase B-A (Q6DE08 whole entry): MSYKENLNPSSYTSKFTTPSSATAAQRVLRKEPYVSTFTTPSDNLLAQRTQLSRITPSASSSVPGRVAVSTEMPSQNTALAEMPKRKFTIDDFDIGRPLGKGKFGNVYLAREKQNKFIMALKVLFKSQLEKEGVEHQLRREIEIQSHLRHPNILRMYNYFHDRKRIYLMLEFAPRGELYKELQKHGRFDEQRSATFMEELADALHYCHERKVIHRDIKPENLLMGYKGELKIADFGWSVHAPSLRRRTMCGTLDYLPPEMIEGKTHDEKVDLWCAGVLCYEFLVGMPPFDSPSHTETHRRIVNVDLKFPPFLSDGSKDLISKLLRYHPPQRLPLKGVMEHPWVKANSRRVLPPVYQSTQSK
Sequence of Aurora kinase B (Q96GD4 whole entry): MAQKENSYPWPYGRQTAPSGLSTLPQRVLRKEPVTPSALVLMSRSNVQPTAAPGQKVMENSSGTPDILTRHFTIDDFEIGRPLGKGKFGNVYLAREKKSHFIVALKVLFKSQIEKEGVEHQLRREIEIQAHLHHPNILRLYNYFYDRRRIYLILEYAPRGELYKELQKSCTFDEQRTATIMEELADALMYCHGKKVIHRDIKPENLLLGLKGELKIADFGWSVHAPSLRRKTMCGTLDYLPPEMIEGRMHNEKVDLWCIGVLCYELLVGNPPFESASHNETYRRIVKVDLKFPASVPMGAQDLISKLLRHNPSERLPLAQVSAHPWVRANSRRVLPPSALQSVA

Take `COc1cc2c(Nc3ccc(NC(=O)c4ccccc4)cc3)ncnc2cc1OCCCN1CCOCC1`: the IC50 in assay [1] worked out at 45 nM.

As for `CCS(=O)(=O)Nc1ccc2c(c1)/C(=C(/Nc1ccc(CN3CCCCC3)cc1)c1ccccc1)C(=O)N2` [HESPERADIN], the IC50 turned out to be 11 nM in assay [2], 3 nM in assay [3] and 3 nM in assay [1]. The compound `Cc1cc(Nc2cc(N3CCN(C)CC3)nc(Sc3ccc(NC(=O)C4CC4)cc3)n2)[nH]n1` [TOZASERTIB] gave an IC50 in assay [1] of 19 nM.
